Legend:
[1] = The drug is tested on Z-030 corresponding to mouse gut metagenome with ENA study accession number: PRJEB37062 and ENA sample accession number: ERS12561829 for biotransformation under anaerobic condition. The drug concentrations were measured over 9 timepoints collected between 0 and 24 hours of incubation by liquid-chromatography-coupled mass spectrometry (LC–MS); conditions: 2 µM
[2] = The drug is tested on WLS-006 corresponding to human gut metagenome with ENA study accession number: PRJEB37062 and ENA sample accession number: ERS12561741 for biotransformation under anaerobic condition. The drug concentrations were measured over 9 timepoints collected between 0 and 24 hours of incubation by liquid-chromatography-coupled mass spectrometry (LC–MS); conditions: 2 µM
[3] = human gut metagenome, 24 h, 2 µM
[4] = The drug is tested on WLS-098 corresponding to human gut metagenome with ENA study accession number: PRJEB37062 and ENA sample accession number: ERS12561754 for biotransformation under anaerobic condition. The drug concentrations were measured over 9 timepoints collected between 0 and 24 hours of incubation by liquid-chromatography-coupled mass spectrometry (LC–MS); conditions: 2 µM
[5] = The drug is tested on WLS-077 corresponding to human gut metagenome with ENA study accession number: PRJEB37062 and ENA sample accession number: ERS12561750 for biotransformation under anaerobic condition. The drug concentrations were measured over 9 timepoints collected between 0 and 24 hours of incubation by liquid-chromatography-coupled mass spectrometry (LC–MS); conditions: 2 µM
[6] = The drug is tested on Z-014 corresponding to rat gut metagenome with ENA study accession number: PRJEB37062 and ENA sample accession number: ERS12561814 for biotransformation under anaerobic condition. The drug concentrations were measured over 9 timepoints collected between 0 and 24 hours of incubation by liquid-chromatography-coupled mass spectrometry (LC–MS); conditions: 2 µM
[7] = The drug is tested on Z-011 corresponding to mouse gut metagenome with ENA study accession number: PRJEB37062 and ENA sample accession number: ERS12561811 for biotransformation under anaerobic condition. The drug concentrations were measured over 9 timepoints collected between 0 and 24 hours of incubation by liquid-chromatography-coupled mass spectrometry (LC–MS); conditions: 2 µM
[8] = The drug is tested on Z-024 corresponding to pig gut metagenome with ENA study accession number: PRJEB37062 and ENA sample accession number: ERS12561823 for biotransformation under anaerobic condition. The drug concentrations were measured over 9 timepoints collected between 0 and 24 hours of incubation by liquid-chromatography-coupled mass spectrometry (LC–MS); conditions: 2 µM
[9] = human gut metagenome, 24 h, 2 µM; remark: listed apart in the source
[10] = The drug is tested on WLS-010 corresponding to human gut metagenome with ENA study accession number: PRJEB37062 and ENA sample accession number: ERS12561743 for biotransformation under anaerobic condition. The drug concentrations were measured over 9 timepoints collected between 0 and 24 hours of incubation by liquid-chromatography-coupled mass spectrometry (LC–MS); conditions: 2 µM
[11] = The drug is tested on Z-016 corresponding to mouse gut metagenome with ENA study accession number: PRJEB37062 and ENA sample accession number: ERS12561815 for biotransformation under anaerobic condition. The drug concentrations were measured over 9 timepoints collected between 0 and 24 hours of incubation by liquid-chromatography-coupled mass spectrometry (LC–MS); conditions: 2 µM
[12] = The drug is tested on Z-026 corresponding to metagenome with ENA study accession number: PRJEB37062 and ENA sample accession number: ERS12561825 for biotransformation under anaerobic condition. The drug concentrations were measured over 9 timepoints collected between 0 and 24 hours of incubation by liquid-chromatography-coupled mass spectrometry (LC–MS); conditions: 2 µM
[13] = human gut metagenome, 24 h, 2 µM; remark: listed apart in the source
[14] = human gut metagenome, 24 h, 2 µM; remark: listed apart in the source
[15] = human gut metagenome, 24 h, 2 µM; remark: listed apart in the source
[16] = human gut metagenome, 24 h, 2 µM; remark: listed apart in the source
[17] = human gut metagenome, 24 h, 2 µM; remark: listed apart in the source
[18] = human gut metagenome, 24 h, 2 µM; remark: listed apart in the source
[19] = The drug is tested on Z-012 corresponding to metagenome with ENA study accession number: PRJEB37062 and ENA sample accession number: ERS12561812 for biotransformation under anaerobic condition. The drug concentrations were measured over 9 timepoints collected between 0 and 24 hours of incubation by liquid-chromatography-coupled mass spectrometry (LC–MS); conditions: 2 µM
[20] = The drug is tested on WLS-069 corresponding to human gut metagenome with ENA study accession number: PRJEB37062 and ENA sample accession number: ERS12561748 for biotransformation under anaerobic condition. The drug concentrations were measured over 9 timepoints collected between 0 and 24 hours of incubation by liquid-chromatography-coupled mass spectrometry (LC–MS); conditions: 2 µM
Also: call rule not given here.

SMILES	Bacterial Biotransformation [1]	Bacterial Biotransformation [2]	Bacterial Biotransformation [3]	Bacterial Biotransformation [4]	Bacterial Biotransformation [5]	Bacterial Biotransformation [6]	Bacterial Biotransformation [7]	Bacterial Biotransformation [8]	Bacterial Biotransformation [9]	Bacterial Biotransformation [10]	Bacterial Biotransformation [11]	Bacterial Biotransformation [12]	Bacterial Biotransformation [13]	Bacterial Biotransformation [14]	Bacterial Biotransformation [15]	Bacterial Biotransformation [16]	Bacterial Biotransformation [17]	Bacterial Biotransformation [18]	Bacterial Biotransformation [19]	Bacterial Biotransformation [20]
C[C@@H](c1ncncc1F)[C@](O)(Cn1cncn1)c1ccc(F)cc1F [VORICONAZOLE]	Compound NOT metabolized	Compound metabolized	Compound metabolized	Compound metabolized	Compound metabolized	Compound NOT metabolized	Compound NOT metabolized	Compound metabolized	Compound metabolized	Compound metabolized	Compound metabolized	Compound NOT metabolized	Compound metabolized	Compound metabolized	Compound metabolized	Compound metabolized	Compound metabolized	Compound metabolized	Compound metabolized	Compound metabolized
COc1ccc2cc([C@H](C)C(=O)O)ccc2c1 [NAPROXEN]	Compound NOT metabolized	Compound metabolized	Compound NOT metabolized	Compound metabolized	Compound NOT metabolized	Compound NOT metabolized	Compound NOT metabolized	Compound NOT metabolized	Compound metabolized	Compound metabolized	Compound NOT metabolized	Compound NOT metabolized	Compound metabolized	Compound NOT metabolized	Compound metabolized	Compound metabolized	Compound metabolized	Compound NOT metabolized	Compound NOT metabolized	Compound metabolized
C[C@]12CCC(=O)C=C1[C@@H]1C[C@@H]1[C@H]1[C@@H]3[C@@H]4C[C@@H]4[C@@]4(CCC(=O)O4)[C@@]3(C)CC[C@@H]12 [DROSPIRENONE]	Compound NOT metabolized	Compound metabolized	Compound metabolized	Compound NOT metabolized	Compound metabolized	Compound NOT metabolized	Compound NOT metabolized	Compound NOT metabolized	Compound metabolized	Compound metabolized	Compound metabolized	Compound NOT metabolized	Compound metabolized	Compound NOT metabolized	Compound metabolized	Compound metabolized	Compound metabolized	Compound metabolized	Compound NOT metabolized	Compound metabolized

Source: ChEMBL document CHEMBL5724914, “Linking interpersonal differences in gut microbiota composition and drug biotransformation activity” (2024)
